Where a name gives a salt, the structure may show the parent alone.

The experiment deals with full-length human PRMT8 isoform 1 (Homo sapiens, UniProt Q9NR22). As to the kind of experiment: PRMT8 biochemical assay (3H-SAM Flashplate, histone H4 31-45 peptide). Conditions: 1.5 nM PRMT8, 30 min preincubation, 150 nM peptide. The text has this: S-adenosylmethionine (SAM), S-adenosylhomocysteine (SAH), bicine, Tween20, dimethylsulfoxide (DMSO), bovine skin gelatin (BSG), isopropyl-β-D-thiogalactopyranoside (IPTG), and Tris(2-carboxyethyl)phosphine hydrochloride solution (TCEP) were purchased from Sigma-Aldrich at the highest level of purity possible. ^3H-SAM was purchase from American Radiolabeled Chemicals with a specific activity of 80 Ci/mmol. 384-well streptavidin Flashplates were purchased from PerkinElmer.
Sequence of full-length human PRMT8 isoform 1 (Q9NR22 whole entry, the tested form may be a part, canonical isoform): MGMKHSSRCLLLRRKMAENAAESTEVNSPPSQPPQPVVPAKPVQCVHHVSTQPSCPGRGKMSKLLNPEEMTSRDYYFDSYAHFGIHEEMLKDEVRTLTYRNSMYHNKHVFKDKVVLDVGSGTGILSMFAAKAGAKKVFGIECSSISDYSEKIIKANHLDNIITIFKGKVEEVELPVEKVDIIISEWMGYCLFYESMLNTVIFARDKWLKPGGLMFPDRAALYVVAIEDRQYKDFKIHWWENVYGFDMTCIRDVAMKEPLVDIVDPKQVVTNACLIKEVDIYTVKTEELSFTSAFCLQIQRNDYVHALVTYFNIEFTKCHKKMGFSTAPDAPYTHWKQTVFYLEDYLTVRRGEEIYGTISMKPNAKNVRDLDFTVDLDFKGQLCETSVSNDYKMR
Peptide representative of human histone H4 residues 31-45 was synthesized with an N-terminal linker-affinity tag motif and a C-terminal amide cap by 21st Century Biochemicals. The peptide was purified by high-performance liquid chromatography (HPLC) to greater than 95% purity and confirmed by liquid chromatography mass spectrometry (LC-MS). The sequence was Biot-Ahx-[…]-amide (SEQ ID NO.:8).
The resulting construct encodes an N-terminal GST tag and a thrombin cleavage sequence
E. coli (BL21(DE3) Gold, Stratagene) made competent by the CaCl2 method were transformed with the PRMT8 construct and ampicillin selection. Protein over-expression was accomplished by growing the PRMT8 expressing E. coli clone and inducing expression with 0.3 mM IPTG at 16° C. The culture was grown for 12 hours, harvested by centrifugation, and stored at −80° C. for purification.
GST-tagged PRMT8 was eluted with 50 mM Tris, 2 mM glutathione, pH 7.8. Pooled fractions were cleaved by thrombin (10U) and dialysed in buffer A. GST was removed by reloading the cleaved protein sample onto glutathione sepharose column and PRMT8 was collected in the flow-through fractions. PRMT8 was purified further by ceramic hydroxyapatite chromatography. The column was washed with 50 mM phosphate buffer, 100 mM NaCl, 5% glycerol, 5 mM […], pH 7.8 and PRMT8 was eluted by 100 mM phosphate in the same buffer. Protein was concentrated and buffer was exchanged to 50 mM Tris, 300 mM NaCl, 10% glycerol, 5 mM β-mercaptoethanol, pH 7.8 by ultrafiltration. The purity of recovered protein was 89%.
General Procedure for PRMT8 Enzyme Assays on Peptide Substrates.
The assays were all performed in a buffer consisting of 20 mM Bicine (pH=7.6), 1 mM TCEP, 0.005% BSG, and 0.002% Tween 20, prepared on the day of use. Compounds in 100% DMSO (1 ul) were spotted into a polypropylene 384-well V-bottom plates (Greiner) using a Platemate Plus outfitted with a 384-channel head (Thermo Scientific). DMSO (1 ul) was added to Columns 11, 12, 23, 24, rows A-H for the maximum signal control and 1 ul of SAH, a known product and inhibitor of PRMT8, was added to columns 11, 12, 23, 24, rows I-P for the minimum signal control. A cocktail (40 ul) containing the PRMT8 enzyme was added by Multidrop Combi (Thermo-Fisher). The compounds were allowed to incubate with PRMT8 for 30 min at room temperature, then a cocktail (10 ul) containing ^3H-SAM and peptide was added to initiate the reaction (final volume=51 ul). The final concentrations of the components were as follows: PRMT8 was 1.5 nM, ^3H-SAM was 50 nM, non-radiolabeled SAM was 550 nM, peptide was 150 nM, SAH in the minimum signal control wells was 1 mM, and the DMSO concentration was 2%. The assays were stopped by the addition of non-radiolabeled SAM (10 ul) to a final concentration of 400 uM, which dilutes the ^3H-SAM to a level where its incorporation into the peptide substrate is no longer detectable. 50 ul of the reaction in the 384-well polypropylene plate was then transferred to a 384-well Flashplate and the biotinylated peptides were allowed to bind to the streptavidin surface for at least 1 hour before being washed once with 0.1% Tween20 in a Biotek ELx405 plate washer. The plates were then read in a PerkinElmer TopCount plate reader to measure the quantity of ^3H-labeled peptide bound to the Flashplate surface, measured as disintegrations per minute (dpm) or alternatively, referred to as counts per minute (cpm). […]
`CNCCN(C)Cc1c[nH]nc1C1CCC(C)(C)[C@H](COCCOC)C1` (stereo partly drawn) [compound 35, {2-[({3-[(3R)-3-[(2-methoxyethoxy)methyl]-4,4-dimethylcyclohexyl]-1H-pyrazol-4-yl}methyl)(methyl)amino]ethyl}(methyl)amine] gave an IC50 of 110 nM. The result for `CNCCN(C)Cc1nocc1[C@H]1CC[C@]2(CC1)CC(C)(C)CO2` [compound 118] reads 482 nM.

Take `CNCCN(C)Cc1c[nH]nc1[C@H]1CC[C@@H](COCC(F)(F)F)CC1` [compound 23, N1,N2-dimethyl-N1-((3-((1s,4s)-4-((2,2,2-trifluoroethoxy)methyl)cyclohexyl)-1H-pyrazol-4-yl)methyl)ethane-1,2-diamine]: inhibition was half-maximal at 91.8 nM (IC50).

In turn, `CNCCN(C)Cc1c[nH]nc1C1CCC(C)(C)[C@H](COCCCOC)C1` (stereo partly drawn) [compound 30, {2-[({3-[(3R)-3-[(3-methoxypropoxy)methyl]-4,4-dimethylcyclohexyl]-1H-pyrazol-4-yl}methyl)(methyl)amino]ethyl}(methyl)amine] registered an IC50 of 187 nM. As for `CCOCC1(COCC)CC=C(c2n[nH]cc2CN(C)CCNC)CC1` [compound 60], the figure is 22.5 nM; as for `CCOCC1(COCC)CCC(c2n[nH]cc2CN(C)CCN)CC1` [compound 123], 9.49 nM; as for `CNCCN(C)Cc1nnc(C)n1[C@H]1CC[C@]2(CC1)CC(C)(C)CO2` [compound 93], above 10000 nM. In turn, `CNCCN(C)Cc1c[nH]nc1C1CCC(C)(C)[C@H](CO)C1` (stereo partly drawn) [compound 32, [(1R)-2,2-dimethyl-5-[4-({methyl[2-(methylamino)ethyl]amino}methyl)-1H-pyrazol-3-yl]cyclohexyl]methanol] displayed an IC50 of 291 nM. On to `CNCCN(C)Cc1scnc1[C@H]1CC[C@@]2(CC1)CC(C)(C)CO2` [compound 62], for which inhibition was half-maximal at 9.08 nM (IC50).

For `CNCCN(C)Cc1nc(C)sc1[C@H]1CC[C@@]2(CC1)CC(C)(C)CO2` [compound 77], the IC50 amounted to 27.7 nM. `CNCCN(C)Cc1c[nH]nc1C1CCC(C)(C)[C@H](OCC(C)C)C1` (stereo partly drawn) [compound 20, ({3-[(3R)-4,4-dimethyl-3-(2-methylpropoxy)cyclohexyl]-1H-pyrazol-4-yl}methyl)(methyl)[2-(methylamino)ethyl]amine] returned an IC50 of 24.5 nM. The result for `CNCCN(C)Cc1c(C)[nH]nc1[C@H]1CC[C@]2(CC1)CC(C)(C)CO2` [compound 58] reads 55.1 nM; that for `CNCCN(C)Cc1nccn1[C@H]1CC[C@@]2(CC1)CC(C)(C)CO2` [compound 69], 273 nM. The result for `CNCCN(C)Cc1nn(C)nc1[C@H]1CC[C@@]2(CC1)CC(C)(C)CO2` [compound 64] reads 25.3 nM; that for `CNCCN(C)Cc1c[nH]nc1[C@H]1CC[C@@]2(CC1)COC(C)(C)C2` [compound 126, N1-((3-((5r,8r)-3,3-dimethyl-2-oxaspiro[4.5]decan-8-yl)-1H-pyrazol-4-yl)methyl)-N1,N2-dimethylethane-1,2-diamine], 21.3 nM.

`CNCCN(C)Cc1n[nH]cc1[C@H]1CC[C@@]2(CC1)CC(C)(C)CO2` [compound 115] gave an IC50 of 16.2 nM.

Turning to `CCOCC1(COCC)CCC(c2nn(C)cc2CN(C)CCN)CC1` [compound 124], half-maximal inhibition (IC50) required 25.4 nM. As for `CC[C@]12CC[C@](CC)(C[C@@H](c3n[nH]cc3CN(C)CCNC)C1)O2` [compound 38, N1-((3-((1R,3s,5S)-1,5-diethyl-8-oxabicyclo[3.2.1]octan-3-yl)-1H-pyrazol-4-yl)methyl)-N1,N2-dimethylethane-1,2-diamine], 177 nM corresponded to half-maximal inhibition (IC50).

Compound `CNCCN(C)Cc1cn(C)nc1C1CCC(C)(C)[C@@H](C(=O)NCC(C)C)C1` (stereo partly drawn) [compound 25] displayed an IC50 of 2790 nM. Regarding `CN(CCN)Cc1nn(C)cc1[C@H]1CC[C@]2(CC1)CC(C)(C)CO2` [compound 102], the IC50 was 38.9 nM.

`CNCCN(C)Cc1nn(C)cc1[C@H]1CC[C@@]2(CC1)CC(C)(C)CO2` [compound 81] came in with an IC50 of 30.9 nM.

`CNCCN(C)Cc1nc(C)sc1[C@H]1CC[C@]2(CC1)CC(C)(C)CO2` [compound 99] showed an IC50 of 49 nM.

On to `CN(CCN)Cc1c[nH]nc1[C@H]1CC[C@]2(CC1)CC(C)(C)CO2` [compound 106], for which inhibition was half-maximal at 67.2 nM (IC50). The result for `CNCCN(C)Cc1nncn1[C@H]1CC[C@@]2(CC1)CC(C)(C)CO2` [compound 68] reads 3480 nM; that for `CNCCN(C)Cc1ncsc1[C@H]1CC[C@@]2(CC1)CC(C)(C)CO2` [compound 83], 18.5 nM.

`CNCCN(C)Cc1n[nH]cc1[C@H]1CC[C@]2(CC1)CC(C)(C)CO2` [compound 116] had an IC50 of 31.8 nM. `CNCCN(C)Cc1c[nH]nc1[C@@H]1CC[C@@H](OCCCOC)C2(CCCC2)C1` (racemic) [compound 26, N1-((3-((7R,10R)-10-(3-methoxypropoxy)spiro[4.5]decan-7-yl)-1H-pyrazol-4-yl)methyl)-N1,N2-dimethylethane-1,2-diamine] registered an IC50 of 67.6 nM.

`CNCCN(C)Cc1sc(C)nc1[C@H]1CC[C@]2(CC1)CC(C)(C)CO2` [compound 100] yielded a half-maximal inhibitory concentration (IC50) of 43.6 nM. The result for `CNCCN(C)Cc1ccnn1[C@H]1CC[C@]2(CC1)CC(C)(C)CO2` [compound 50, N1-((1-((5r,8r)-3,3-dimethyl-1-oxaspiro[4.5]decan-8-yl)-1H-pyrazol-5-yl)methyl)-N1,N2-dimethylethane-1,2-diamine] reads 32.2 nM; that for `CNCCN(C)Cc1c(Cl)ncn1[C@H]1CC[C@]2(CC1)CC(C)(C)CO2` [compound 97], 526 nM; that for `CNCCN(C)Cc1cncn1[C@H]1CC[C@@]2(CC1)CC(C)(C)CO2` [compound 76], 15.7 nM.

As for `CNCCN(C)Cc1nncn1[C@H]1CC[C@]2(CC1)CC(C)(C)CO2` [compound 90], the IC50 is above 10000 nM.

The compound `CCC1(CC)C[C@]2(CC[C@H](c3n[nH]cc3CN(C)CCNC)CC2)OC1=O` [compound 33, (5s,8s)-3,3-diethyl-8-(4-((methyl(2-(methylamino)ethyl)amino)methyl)-1H-pyrazol-3-yl)-1-oxaspiro[4.5]decan-2-one] gave an IC50 of 95.8 nM. As for `CNCCN(C)Cc1c[nH]nc1[C@H]1CC[C@@]2(CCCCO2)CC1` [compound 3], the figure is 32.8 nM. `CNCCN(C)Cc1c[nH]nc1C1=CCC(COCC(F)(F)F)CC1` (stereo not drawn) [compound 16, N1,N2-dimethyl-N1-((3-(4-((2,2,2-trifluoroethoxy)methyl)cyclohex-1-en-1-yl)-1H-pyrazol-4-yl)methyl)ethane-1,2-diamine] came in with an IC50 of 26.4 nM. The result for `CNCCN(C)Cc1c[nH]nc1[C@H]1CC[C@]2(CCN(CCC(C)C)C2=O)CC1` [compound 10] reads 106 nM; that for `CNCCN(C)Cc1nnc(C)n1[C@H]1CC[C@@]2(CC1)CC(C)(C)CO2` [compound 71], 4320 nM. Compound `CNCCN(C)Cc1c[nH]nc1C1=CCC(CF)(CF)CC1` [compound 15, N-((3-(4,4-bis(fluoromethyl)cyclohex-1-en-1-yl)-1H-pyrazol-4-yl)methyl)-N1,N2-dimethylethane-1,2-diamine] returned an IC50 of 15.3 nM.

Consider `CCC1CC(c2n[nH]cc2CN(C)CCNC)CC(C(=O)NCCOC)C1(C)C` (stereo not drawn) [compound 21, 3-ethyl-N-(2-methoxyethyl)-2,2-dimethyl-5-[4-([methyl[2-(methylamino)ethyl]amino]methyl)-1H-pyrazol-3-yl]cyclohexane-1-carboxamide dihydrochloride], for which it took 614 nM to reach half-maximal inhibition (IC50).

The values are drawn from patent US20170291905A1, “ARGININE […] INHIBITORS AND USES THEREOF” (Epizyme, Inc., priority 2014, published 2017).
